In patent publication US7112608B2, “Hydroxyphenylundecane, a process for their production and their use” (Sanofi-Aventis Deutschland GmbH, priority 2002, dated 2006):

Key:
JNK3 = molecular target: T1, JNK3 (Homo sapiens, UniProt P53779); assay: JNK3 Assay (HTRF, JNK-3/GST-ATF2); assay type: biochemical; details: JNK3 kinase, GST-ATF2 substrate, 15 μM ATP solution, 20 min at 37° C.
T1 construct: Biotech, Vitry
Method: The assay was performed on a Cybio pipetting system in the 384-well plate format. The final assay volume was 30 μl, comprising 10 μl of a probe (an extract or a pure substance-to-be-tested), 10 μl of an enzym-subtrate mixture (JNK-3/GST-ATF2) and 10 μl ATP solution. After 20 min incubation at 37° C. 50 μl HTRF abtibody mixture (XL665-anti-GST/(Eu)cryptat anti-P-ATF2) were added. The emission intensity of the energy transfer and of Eu at 665 and 615 nm, resp., were measured after 120 min at room temperature and stimulation of the probes at 340 nm in a Victor2® (Wallac).
Buffer I for diluting JNK3, GST-ATF2, ATP:
Buffer II for diluting HTRF reagents:
Each plate included 16 positiv controls (maximum energy transfer, buffer I instead of probe), 8 blank controls (minimal energy transfer, buffer 11 instead of ATP) and 8 wells containing a 200 μM EDTA solution.
The results were calculated as follows:
Signal Ration: SR=(intensity(665 nm)/intensity(615 nm)) Blank Correction: Delta F(%)=[…] Inhibition: Inhibition (%)=100×[1−(Delta F(Probe)/Delta F(max))

[1] = Physico chemical properties: solubility; assay type: physicochemical; details: solvents in which the compound is soluble

T1 sequence (P53779 whole entry): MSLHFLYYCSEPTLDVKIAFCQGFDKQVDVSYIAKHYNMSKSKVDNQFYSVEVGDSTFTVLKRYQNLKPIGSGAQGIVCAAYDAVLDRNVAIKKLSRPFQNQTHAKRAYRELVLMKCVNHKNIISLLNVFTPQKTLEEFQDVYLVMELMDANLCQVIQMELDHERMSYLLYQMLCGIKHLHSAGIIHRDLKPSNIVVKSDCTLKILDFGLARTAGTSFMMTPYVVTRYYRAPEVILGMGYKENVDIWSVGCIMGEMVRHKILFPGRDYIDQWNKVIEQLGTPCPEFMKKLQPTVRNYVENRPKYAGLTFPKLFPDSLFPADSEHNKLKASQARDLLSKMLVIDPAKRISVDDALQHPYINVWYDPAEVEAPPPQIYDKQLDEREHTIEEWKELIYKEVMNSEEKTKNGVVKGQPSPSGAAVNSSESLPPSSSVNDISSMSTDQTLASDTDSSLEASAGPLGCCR

| IC50 (JNK3) [µM] | Solubility [1] | Compound |
| --- | --- | --- |
| 10 |  | CCCCCCCCCCCc1cc(O)cc(O)c1C(=O)OC(CCC)CCCCCCCc1cc(O)cc(O)c1 (stereo not drawn) [Spinosulfate B] |
| 0.5 | Methanol, DMSO | CCCCCCCCCCCc1cc(O)cc(O)c1C(=O)OC(CCC)CCCCCCCc1cc(OS(=O)(=O)O)cc(OS(=O)(=O)O)c1 (stereo not drawn) [Spinosulfate A] |
